Measured values reported in US12202823B2 (QUIMATRYX, S.L., priority 2019, dated 2025).
Where two headings read alike, the source gives them in different places.

Assays:
hHDAC9 = hHDAC9 (Homo sapiens (Human), UniProt Q9UKV0); experiment: hHDAC9 inhibition protocol; conditions: read-out: IC50 (nM) of enzyme activity HDAC9; selectivity table
Procedure: (§1) After enzymatic reactions, reaction was stopped by adding 5 μl of 10 μM solution of a known inhibitor. The fluorescent signal of substrate and product was measured by means of microfluidics mobility assay in a EZ Reader II equipment. The percentage of conversion of substrate into product was calculated by the equipment software based on the area of the peaks.
(§2) The percentage of conversion data were analyzed using the computer software, Graphpad Prism. In the absence of the compound, the conversion (Ct) in each data set was defined as 100% activity. In the absence of HDAC, the conversion (Cb) in each data set was defined as 0% activity. The percent activity in the presence of each compound was calculated according to the following equation: % inhibition=(Ct−C)/(Ct−Cb), where C=the percentage of conversion in the presence of the compound.
(§3) The values of % inhibition versus a series of compound concentrations were then plotted using non-linear regression analysis of Sigmoidal dose-response curve generated with the equation Y=B+(T−B)/1+10((Log EC50−X)×Hill Slope), where Y=percent inhibition, B=minimum percent inhibition, T=maximum percent inhibition, X=logarithm of compound and Hill Slope=slope factor or Hill coefficient. The IC50 value was determined by the concentration causing a half-maximal percent activity.
The buffer assay used in the inhibition hHDAC9 assay is: Hepes 50 mM, KCl 100 mM, Tween 20 0.001%, BSA 0.01%; pH=7.4.

hHDAC10 = hHDAC10 (Homo sapiens (Human), UniProt Q969S8); experiment: HDAC10 inhibition protocol; conditions: read-out: IC50 (nM) of enzyme activity HDAC10; selectivity table
Procedure: as §1, §2, §3
The buffer assay used in the inhibition hHDAC10 assay is: Hepes 50 mM, KCl 100 mM, Tween 20 0.001%, BSA 0.01%; pH=7.4.

hHDAC2 = hHDAC2 (Homo sapiens (Human), UniProt Q92769); experiment: hHDAC2 inhibition protocol; conditions: read-out: IC50 (nM) of enzyme activity HDAC2; selectivity table
Procedure: as §1, §2, §3
The buffer assay used in the inhibition hHDAC2 assay is: Hepes 50 mM, KCl 100 mM, Tween 20 0.001%, BSA 0.01%; pH=7.4.

hHDAC3 = hHDAC3 (Homo sapiens (Human), UniProt O15379); experiment: hHDAC3 inhibition protocol; conditions: read-out: IC50 (nM) of enzyme activity HDAC3; selectivity table
Procedure: as §1, §2, §3
The buffer assay used in the inhibition hHDAC3 assay is: Hepes 50 mM, KCl 100 mM, Tween 20 0.001%, BSA 0.01%; pH=7.4.

hHDAC5 = hHDAC5 (Homo sapiens (Human), UniProt Q9UQL6); experiment: hHDAC5 inhibition protocol; conditions: read-out: IC50 (nM) of enzyme activity HDAC5; selectivity table
Procedure: as §1, §2, §3
The buffer assay used in the inhibition hHDAC5 assay is: Hepes 50 mM, KCl 100 mM, Tween 20 0.001%, BSA 0.01%; pH=7.4.

hHDAC6 = hHDAC6 (Homo sapiens (Human), UniProt Q9UBN7); experiment: HDAC6 inhibition protocol; conditions: read-out: IC50 (nM) of enzyme activity HDAC6
Procedure: as §1, §2, §3
The buffer assay used in the inhibition hHDAC6 assay is: Hepes 50 mM, KCl 100 mM, Tween 20 0.001%, BSA 0.01%; pH=7.4.

hHDAC4 = hHDAC4 (Homo sapiens (Human), UniProt P56524); experiment: hHDAC4 inhibition protocol; conditions: read-out: IC50 (nM) of enzyme activity HDAC4; selectivity table
Procedure: as §1, §2, §3
The buffer assay used in the inhibition hHDAC4 assay is: Hepes 50 mM, KCl 100 mM, Tween 20 0.001%, BSA 0.01%; pH=7.4.

hHDAC7 = hHDAC7 (Homo sapiens (Human), UniProt Q8WUI4); experiment: hHDAC7 inhibition protocol; conditions: read-out: IC50 (nM) of enzyme activity HDAC7; selectivity table
Procedure: The fluorescent signal of substrate and product was measured by means of microfluidics mobility assay in a EZ Reader II equipment. The percentage of conversion of substrate into product was calculated by the equipment software based on the area of the peaks.
as §2, §3
The buffer assay used in the inhibition hHDAC7 assay is: Hepes 50 mM, KCl 100 mM, Tween 20 0.001%, BSA 0.01%; pH=7.4.

hHDAC8 = hHDAC8 (Homo sapiens (Human), UniProt Q9BY41); experiment: hHDAC8 inhibition protocol; conditions: read-out: IC50 (nM) of enzyme activity HDAC8; selectivity table
Procedure: as §1, §2, §3
The buffer assay used in the inhibition hHDAC8 assay is: Hepes 50 mM, KCl 100 mM, Tween 20 0.001%, BSA 0.01%; pH=7.4.

hHDAC1 = hHDAC1 (Homo sapiens (Human), UniProt Q13547); experiment: hHDAC1 inhibition protocol; conditions: read-out: IC50 (nM) of enzyme activity HDAC1; selectivity table
Procedure: as §1, §2, §3
The buffer assay used in the inhibition hHDAC1 assay is: Hepes 50 mM, KCl 100 mM, Tween 20 0.001%, BSA 0.01%; pH=7.4.

[1] = hHDAC6 1.20 nM, Acetylated Peptide A 2 μM, 1 hour at RT

hHDAC8, sequence (Q9BY41 whole entry): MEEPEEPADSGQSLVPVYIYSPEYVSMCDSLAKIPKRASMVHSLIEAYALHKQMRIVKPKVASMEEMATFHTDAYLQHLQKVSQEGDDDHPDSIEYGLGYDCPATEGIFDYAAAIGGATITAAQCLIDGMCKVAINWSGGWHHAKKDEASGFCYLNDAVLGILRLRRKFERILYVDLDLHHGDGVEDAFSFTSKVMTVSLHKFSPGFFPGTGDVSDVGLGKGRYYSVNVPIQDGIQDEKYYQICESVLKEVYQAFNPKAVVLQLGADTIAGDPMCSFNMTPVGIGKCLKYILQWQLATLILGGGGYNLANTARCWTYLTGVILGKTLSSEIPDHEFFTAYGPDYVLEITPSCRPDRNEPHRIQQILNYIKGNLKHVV
hHDAC3, sequence (O15379 whole entry): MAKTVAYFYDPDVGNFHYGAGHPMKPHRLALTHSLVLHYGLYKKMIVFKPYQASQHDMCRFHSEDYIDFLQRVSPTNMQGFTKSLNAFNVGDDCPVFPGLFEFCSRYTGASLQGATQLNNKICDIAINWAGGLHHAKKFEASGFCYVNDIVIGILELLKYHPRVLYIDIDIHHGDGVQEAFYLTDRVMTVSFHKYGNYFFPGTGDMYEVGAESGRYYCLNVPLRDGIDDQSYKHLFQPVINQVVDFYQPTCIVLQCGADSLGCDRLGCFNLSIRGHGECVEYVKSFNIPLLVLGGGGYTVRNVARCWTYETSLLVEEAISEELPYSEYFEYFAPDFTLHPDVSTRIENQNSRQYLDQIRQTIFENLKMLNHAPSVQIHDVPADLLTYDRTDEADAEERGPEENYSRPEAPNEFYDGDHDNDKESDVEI
hHDAC3, sequence (Q9Y618 395-489 partner): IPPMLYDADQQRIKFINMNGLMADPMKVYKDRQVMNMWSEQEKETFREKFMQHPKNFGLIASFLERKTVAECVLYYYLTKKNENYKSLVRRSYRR
hHDAC7, sequence (Q8WUI4 whole entry): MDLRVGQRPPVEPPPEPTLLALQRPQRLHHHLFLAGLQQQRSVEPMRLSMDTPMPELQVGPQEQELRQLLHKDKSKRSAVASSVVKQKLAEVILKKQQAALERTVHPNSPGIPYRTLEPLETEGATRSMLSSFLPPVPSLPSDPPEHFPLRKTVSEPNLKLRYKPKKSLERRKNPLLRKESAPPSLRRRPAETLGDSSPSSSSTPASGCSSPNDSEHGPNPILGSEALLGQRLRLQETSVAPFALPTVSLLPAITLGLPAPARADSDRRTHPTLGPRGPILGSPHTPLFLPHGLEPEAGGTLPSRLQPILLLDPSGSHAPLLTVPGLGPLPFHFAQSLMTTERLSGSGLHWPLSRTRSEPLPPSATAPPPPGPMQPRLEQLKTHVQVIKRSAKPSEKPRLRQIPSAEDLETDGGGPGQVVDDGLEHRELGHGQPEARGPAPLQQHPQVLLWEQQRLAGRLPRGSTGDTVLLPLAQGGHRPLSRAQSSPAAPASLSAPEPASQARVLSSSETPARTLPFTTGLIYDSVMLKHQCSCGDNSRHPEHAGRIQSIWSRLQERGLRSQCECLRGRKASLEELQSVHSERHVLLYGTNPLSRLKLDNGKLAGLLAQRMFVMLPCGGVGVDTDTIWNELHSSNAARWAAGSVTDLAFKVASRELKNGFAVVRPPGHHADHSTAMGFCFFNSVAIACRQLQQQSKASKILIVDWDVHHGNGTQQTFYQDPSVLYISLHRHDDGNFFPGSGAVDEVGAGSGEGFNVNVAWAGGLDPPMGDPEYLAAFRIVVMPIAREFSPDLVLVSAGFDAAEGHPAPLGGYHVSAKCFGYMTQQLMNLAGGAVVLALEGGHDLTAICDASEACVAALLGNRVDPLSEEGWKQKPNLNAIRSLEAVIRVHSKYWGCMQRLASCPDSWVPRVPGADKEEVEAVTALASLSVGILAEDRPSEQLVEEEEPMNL
hHDAC5, sequence (Q9UQL6 whole entry): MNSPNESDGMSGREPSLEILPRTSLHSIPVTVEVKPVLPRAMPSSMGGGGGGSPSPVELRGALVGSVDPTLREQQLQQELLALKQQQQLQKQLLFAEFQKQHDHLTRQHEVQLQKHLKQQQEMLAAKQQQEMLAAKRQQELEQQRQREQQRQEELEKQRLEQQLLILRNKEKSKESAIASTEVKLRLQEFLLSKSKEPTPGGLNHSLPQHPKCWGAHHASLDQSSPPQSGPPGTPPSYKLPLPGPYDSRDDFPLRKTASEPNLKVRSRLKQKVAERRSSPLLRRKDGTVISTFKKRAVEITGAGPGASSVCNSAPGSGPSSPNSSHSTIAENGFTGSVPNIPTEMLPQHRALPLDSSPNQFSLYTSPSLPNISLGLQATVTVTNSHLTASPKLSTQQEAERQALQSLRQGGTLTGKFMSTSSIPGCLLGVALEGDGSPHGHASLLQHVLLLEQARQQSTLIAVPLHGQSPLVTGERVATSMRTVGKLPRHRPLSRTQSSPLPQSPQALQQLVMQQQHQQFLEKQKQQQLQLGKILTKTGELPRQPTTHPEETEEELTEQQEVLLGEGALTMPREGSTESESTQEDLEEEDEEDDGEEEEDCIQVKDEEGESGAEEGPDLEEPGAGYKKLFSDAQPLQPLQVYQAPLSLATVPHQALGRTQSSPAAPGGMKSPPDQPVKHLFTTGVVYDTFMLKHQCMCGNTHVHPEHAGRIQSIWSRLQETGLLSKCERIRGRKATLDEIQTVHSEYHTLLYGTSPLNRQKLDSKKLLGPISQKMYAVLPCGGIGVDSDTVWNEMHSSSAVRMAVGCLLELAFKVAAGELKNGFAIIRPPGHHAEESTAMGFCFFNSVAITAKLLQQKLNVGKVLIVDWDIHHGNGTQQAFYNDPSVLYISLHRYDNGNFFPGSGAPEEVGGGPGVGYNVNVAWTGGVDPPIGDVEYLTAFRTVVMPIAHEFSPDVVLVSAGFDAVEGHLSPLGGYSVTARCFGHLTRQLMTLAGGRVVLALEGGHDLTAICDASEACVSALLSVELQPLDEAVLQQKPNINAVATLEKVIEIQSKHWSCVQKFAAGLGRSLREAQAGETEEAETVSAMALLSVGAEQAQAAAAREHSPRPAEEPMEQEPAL
hHDAC2, sequence (Q92769 whole entry): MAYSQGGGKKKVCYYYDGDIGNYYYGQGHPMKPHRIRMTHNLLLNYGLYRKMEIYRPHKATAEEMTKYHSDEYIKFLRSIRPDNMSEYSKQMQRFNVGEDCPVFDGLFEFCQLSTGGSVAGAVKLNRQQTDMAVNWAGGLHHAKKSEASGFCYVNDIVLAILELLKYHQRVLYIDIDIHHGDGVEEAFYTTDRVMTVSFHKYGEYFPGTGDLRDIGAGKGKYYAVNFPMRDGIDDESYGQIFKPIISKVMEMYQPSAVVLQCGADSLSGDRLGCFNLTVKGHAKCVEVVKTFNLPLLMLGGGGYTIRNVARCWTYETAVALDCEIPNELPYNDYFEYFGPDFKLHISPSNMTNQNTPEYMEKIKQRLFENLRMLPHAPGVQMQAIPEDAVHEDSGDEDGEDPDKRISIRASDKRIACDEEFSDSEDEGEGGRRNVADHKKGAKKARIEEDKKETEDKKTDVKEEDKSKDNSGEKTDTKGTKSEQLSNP
hHDAC4, sequence (P56524 whole entry): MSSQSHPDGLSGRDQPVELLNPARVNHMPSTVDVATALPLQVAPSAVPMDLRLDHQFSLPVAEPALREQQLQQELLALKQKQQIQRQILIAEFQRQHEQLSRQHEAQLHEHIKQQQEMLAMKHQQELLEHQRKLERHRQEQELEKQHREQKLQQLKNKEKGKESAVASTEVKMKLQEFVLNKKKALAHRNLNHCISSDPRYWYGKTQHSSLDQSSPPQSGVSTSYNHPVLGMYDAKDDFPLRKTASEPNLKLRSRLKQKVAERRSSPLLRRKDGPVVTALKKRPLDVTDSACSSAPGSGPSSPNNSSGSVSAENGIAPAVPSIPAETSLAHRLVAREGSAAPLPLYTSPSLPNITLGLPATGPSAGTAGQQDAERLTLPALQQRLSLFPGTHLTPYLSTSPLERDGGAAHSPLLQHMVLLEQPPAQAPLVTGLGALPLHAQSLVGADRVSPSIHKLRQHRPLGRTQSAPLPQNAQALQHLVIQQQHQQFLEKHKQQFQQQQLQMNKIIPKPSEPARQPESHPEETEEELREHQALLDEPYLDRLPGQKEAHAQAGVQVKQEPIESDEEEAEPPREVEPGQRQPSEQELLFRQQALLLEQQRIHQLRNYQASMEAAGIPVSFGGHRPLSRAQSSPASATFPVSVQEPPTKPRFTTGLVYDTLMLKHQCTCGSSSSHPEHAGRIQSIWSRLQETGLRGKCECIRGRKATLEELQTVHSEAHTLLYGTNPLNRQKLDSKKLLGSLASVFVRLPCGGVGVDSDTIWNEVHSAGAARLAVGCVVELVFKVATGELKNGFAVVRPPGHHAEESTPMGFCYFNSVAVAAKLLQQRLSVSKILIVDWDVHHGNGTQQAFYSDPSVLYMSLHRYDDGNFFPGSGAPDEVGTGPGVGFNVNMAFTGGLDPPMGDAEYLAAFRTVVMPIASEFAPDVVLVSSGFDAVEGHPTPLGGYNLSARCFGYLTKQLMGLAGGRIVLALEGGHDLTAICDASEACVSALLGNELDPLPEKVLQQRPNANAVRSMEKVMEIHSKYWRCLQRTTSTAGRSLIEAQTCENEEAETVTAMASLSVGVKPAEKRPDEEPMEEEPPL
hHDAC1, sequence (Q13547 whole entry): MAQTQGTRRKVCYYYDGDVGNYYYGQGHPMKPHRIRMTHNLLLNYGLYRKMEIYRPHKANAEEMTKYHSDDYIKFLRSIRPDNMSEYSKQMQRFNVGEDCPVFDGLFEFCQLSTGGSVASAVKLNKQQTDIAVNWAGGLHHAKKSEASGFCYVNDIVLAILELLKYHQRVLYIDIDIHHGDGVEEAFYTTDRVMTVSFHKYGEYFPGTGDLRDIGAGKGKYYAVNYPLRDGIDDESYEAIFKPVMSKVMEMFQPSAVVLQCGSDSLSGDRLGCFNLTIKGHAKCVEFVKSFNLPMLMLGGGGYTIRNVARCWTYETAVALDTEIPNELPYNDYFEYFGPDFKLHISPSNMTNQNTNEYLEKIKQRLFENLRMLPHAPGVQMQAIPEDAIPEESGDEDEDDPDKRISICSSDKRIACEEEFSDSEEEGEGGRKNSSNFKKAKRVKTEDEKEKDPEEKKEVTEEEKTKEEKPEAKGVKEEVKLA

Row | IC50 (hHDAC9) [nM] | IC50 (hHDAC10) [nM] | IC50 (hHDAC2) [nM] | IC50 (hHDAC3) [nM] | IC50 (hHDAC5) [nM] | IC50 (hHDAC6; [1]) [nM] | IC50 (hHDAC6; selectivity table) [nM] | IC50 (hHDAC4) [nM] | IC50 (hHDAC7) [nM] | IC50 (hHDAC8) [nM] | IC50 (hHDAC1) [nM] | Compound
1 | > 10000 | > 10000 | > 10000 | > 10000 | > 10000 | 365 | 365 | > 10000 | > 10000 | > 10000 | > 10000 | FC(F)c1nnc(-c2ccc(Cn3cc4ccccc4n3)cc2)o1 [Example 7, 2-(4-((2H-indazol-2-yl)methyl)phenyl)-5-(difluoromethyl)-1,3,4-oxadiazole]
2 | > 10000 | > 10000 | > 10000 | > 10000 | > 10000 | 171 | 171 | > 10000 | > 10000 | > 10000 | > 10000 | FC(F)c1nnc(-c2ccc(Cn3nnc4ccccc43)cc2)o1 [Example 11, 2-(4-((1H-benzo[d][1,2,3]triazol-1-yl)methyl)phenyl)-5-(difluoromethyl)-1,3,4-oxadiazole]
3 | 6520 | > 10000 | > 10000 | > 10000 | > 10000 | 22.4 | 22.4 | 2400 | 9400 | > 10000 | > 10000 | FC(F)c1nnc(-c2ccc(Cn3cnc4cc(Cl)c(Cl)cc43)nc2)o1 [Example 22, 2-(6-((5,6-dichloro-1H-benzo[d]imidazol-1-yl)methyl)pyridin-3-yl)-5-(difluoromethyl)-1,3,4-oxadiazole]
4 | 8620 | > 10000 | > 10000 | > 10000 | > 10000 | 29.5 | 29.5 | 8370 | > 10000 | > 10000 | > 10000 | FC(F)c1nnc(-c2ccc(Cn3nnc4cc(Cl)c(Cl)cc43)nc2)o1 [Example 24, 2-(6-((5,6-dichloro-1H-benzo[d][1,2,3]triazol-1-yl)methyl)pyridin-3-yl)-5-(difluoromethyl)-1,3,4-oxadiazole]
5 | > 10000 | > 10000 | > 10000 | > 10000 | > 10000 | 29.8 | 29.8 | > 10000 | > 10000 | > 10000 | > 10000 | FC(F)c1nnc(-c2ccc(Cn3nc4cc(Cl)c(Cl)cc4n3)nc2)o1 [Example 25, 2-(6-((5,6-dichloro-2H-benzo[d][1,2,3]triazol-2-yl)methyl)pyridin-3-yl)-5-(difluoromethyl)-1,3,4-oxadiazole]
6 | > 10000 | > 10000 | > 10000 | > 10000 | > 10000 | 85.3 | 85.3 | > 10000 | > 10000 | > 10000 | > 10000 | FC(F)c1nnc(-c2ccc(Cn3cc(-c4ccccc4)nn3)cc2)o1 [Example 27, 2-(difluoromethyl)-5-(4-((4-phenyl-1H-1,2,3-triazol-1-yl)methyl)phenyl)-1,3,4-oxadiazole]
7 | > 10000 | > 10000 | > 10000 | > 10000 | > 10000 | 24 | 24 | > 10000 | > 10000 | > 10000 | > 10000 | Fc1ccccc1-c1cn(Cc2ccc(-c3nnc(C(F)F)o3)cn2)nn1 [Example 48, 2-(difluoromethyl)-5-(6-((4-(2-fluorophenyl)-1H-1,2,3-triazol-1-yl)methyl)pyridin-3-yl)-1,3,4-oxadiazole]
8 |  |  |  |  |  | 43.5 |  |  |  |  |  | COc1cccc(-c2cn(Cc3ccc(-c4nnc(C(F)F)o4)cn3)nn2)c1 [Example 50]
9 |  |  |  |  |  | 87.9 |  |  |  |  |  | FC(F)c1nnc(-c2ccc(Cn3nnc(-c4ccccc4)c3Cl)cc2)o1 [Example 51, 2-(4-((5-chloro-4-phenyl-1H-1,2,3-triazol-1-yl)methyl)phenyl)-5-(difluoromethyl)-1,3,4-oxadiazole]
10 |  |  |  |  |  | 48.4 |  |  |  |  |  | FC(F)c1nnc(-c2ccc(Cn3nnc(-c4ccccc4)c3Cl)nc2)o1 [Example 52, 2-(6-((5-chloro-4-phenyl-1H-1,2,3-triazol-1-yl)methyl)pyridin-3-yl)-5-(difluoromethyl)-1,3,4-oxadiazole]
11 |  |  |  |  |  | 81.5 |  |  |  |  |  | FC(F)c1nnc(-c2ccc(Cn3nnc(-c4ccccc4Cl)c3Cl)nc2)o1 [Example 53, 2-(6-((5-chloro-4-(2-chlorophenyl)-1H-1,2,3-triazol-1-yl)methyl)pyridin-3-yl)-5-(difluoromethyl)-1,3,4-oxadiazole]
12 | 2610 | > 10000 | > 10000 | > 10000 | > 10000 | 34.1 | 34.1 | 1490 | 1400 | > 10000 | > 10000 | FC(F)c1nnc(-c2ccc(Cn3nnc(-c4cccc(Cl)c4)c3Cl)nc2)o1 [Example 54, 2-(6-((5-chloro-4-(3-chlorophenyl)-1H-1,2,3-triazol-1-yl)methyl)pyridin-3-yl)-5-(difluoromethyl)-1,3,4-oxadiazole]
13 |  |  |  |  |  | 58.2 |  |  |  |  |  | FC(F)c1nnc(-c2ccc(C(Cl)n3cc(-c4ccccc4)nn3)nc2)o1 (stereo not drawn) [Example 55, 2-(6-(chloro(4-phenyl-1H-1,2,3-triazol-1-yl)methyl)pyridin-3-yl)-5-(difluoromethyl)-1,3,4-oxadiazole]
14 |  |  |  |  |  | 66.5 |  |  |  |  |  | Fc1cc(F)cc(-c2cn(Cc3ccc(-c4nnc(C(F)F)o4)cn3)nn2)c1 [Example 56, 2-(difluoromethyl)-5-(6-((4-(3,5-difluorophenyl)-1H-1,2,3-triazol-1-yl)methyl)pyridin-3-yl)-1,3,4-oxadiazole]
15 |  |  |  |  |  | 149 |  |  |  |  |  | Fc1cc(-c2cn(Cc3ccc(-c4nnc(C(F)F)o4)cn3)nn2)cc(F)c1F [Example 57, 2-(difluoromethyl)-5-(6-((4-(3,4,5-trifluorophenyl)-1H-1,2,3-triazol-1-yl)methyl)pyridin-3-yl)-1,3,4-oxadiazole]
16 |  |  |  |  |  | 121 |  |  |  |  |  | FC(F)c1nnc(-c2ccc(Cn3c(C(F)(F)F)nc4cc(Cl)c(Cl)cc43)nc2)o1 [Example 58, 2-(6-((5,6-dichloro-2-(trifluoromethyl)-1H-benzo[d]imidazol-1-yl)methyl)pyridin-3-yl)-5-(difluoromethyl)-1,3,4-oxadiazole]
17 |  |  |  |  |  | 85.1 |  |  |  |  |  | Cc1cc2nnn(Cc3ccc(-c4nnc(C(F)F)o4)cn3)c2cc1C [Example 59, 2-(difluoromethyl)-5-(6-((5,6-dimethyl-1H-benzo[d][1,2,3]triazol-1-yl)methyl)pyridin-3-yl)-1,3,4-oxadiazole]
18 |  |  |  |  |  | 42.3 |  |  |  |  |  | Cc1nc2cc(Cl)c(Cl)cc2n1Cc1ccc(-c2nnc(C(F)F)o2)cn1 [Example 60, 2-(6-((5,6-dichloro-2-methyl-1H-benzo[d]imidazol-1-yl)methyl)pyridin-3-yl)-5-(difluoromethyl)-1,3,4-oxadiazole]
19 |  |  |  |  |  | 187 |  |  |  |  |  | Cc1cc2ncn(Cc3ccc(-c4nnc(C(F)F)o4)cn3)c2cc1C [Example 61, 2-(difluoromethyl)-5-(6-((5,6-dimethyl-1H-benzo[d]imidazol-1-yl)methyl)pyridin-3-yl)-1,3,4-oxadiazole]
20 |  |  |  |  |  | 61.8 |  |  |  |  |  | FC(F)c1nnc(-c2ccc(Cn3cnc4ccc(Br)cc43)nc2)o1 [Example 62, 2-(6-((6-bromo-1H-benzo[d]imidazol-1-yl)methyl)pyridin-3-yl)-5-(difluoromethyl)-1,3,4-oxadiazole]
21 |  |  |  |  |  | 48.3 |  |  |  |  |  | FC(F)c1nnc(-c2ccc(Cn3cnc4cc(Br)ccc43)nc2)o1 [Example 63, 2-(6-((5-bromo-1H-benzo[d]imidazol-1-yl)methyl)pyridin-3-yl)-5-(difluoromethyl)-1,3,4-oxadiazole]
22 |  |  |  |  |  | 48.7 |  |  |  |  |  | FC(F)c1nnc(-c2ccc(Cn3nnc4cc(Br)ccc43)nc2)o1 [Example 64, 2-(6-((5-bromo-1H-benzo[d][1,2,3]triazol-1-yl)methyl)pyridin-3-yl)-5-(difluoromethyl)-1,3,4-oxadiazole]
23 |  |  |  |  |  | 40.4 |  |  |  |  |  | FC(F)c1nnc(-c2ccc(Cn3nnc4ccc(Br)cc43)nc2)o1 [Example 65, 2-(6-((6-bromo-1H-benzo[d][1,2,3]triazol-1-yl)methyl)pyridin-3-yl)-5-(difluoromethyl)-1,3,4-oxadiazole]
24 |  |  |  |  |  | 33.3 |  |  |  |  |  | FC(F)c1nnc(-c2ccc(Cn3nc4ccc(Br)cc4n3)nc2)o1 [Example 66, 2-(6-((5-bromo-2H-benzo[d][1,2,3]triazol-2-yl)methyl)pyridin-3-yl)-5-(difluoromethyl)-1,3,4-oxadiazole]
25 |  |  |  |  |  | 67.4 |  |  |  |  |  | Fc1ccccc1-c1nnn(Cc2ccc(-c3nnc(C(F)F)o3)cn2)c1Cl [Example 67, 2-(6-((5-chloro-4-(2-fluorophenyl)-1H-1,2,3-triazol-1-yl)methyl)pyridin-3-yl)-5-(difluoromethyl)-1,3,4-oxadiazole]
